Results on 1 compound are retold here after patent US4606911A, “Pharmaceutical composition for the prevention of dental caries” (Rohto Pharmaceutical Co. Ltd., priority 1984, dated 1986).

Assay [1] has as its system Streptococcus salivarius ATCC 9222. The experiment in a line: Antibacterial activity (MIC, growth in BHI medium). More on the design: key to Antibacterial activity (growth): -: grow; ±: slightly grow; +: not grow. It counts as cell-based. As for the experimental part:
To a test tube was charged 3.8 ml of Brain Heart Infusion (BHI) medium, and 100 μl of a sample solution containing oleanolic, ursolic or glycyrrhetic acid and 100 μl of pre-incubated culture of bacterium selected from those listed below were added thereto. The mixture was incubated at 37° C. and then allowed to stand over night. The extent of the growth of bacterium was observed after two or five days. The MIC value was determined for each sample and summarized in Table 2. |Streptococcus salivarius ATCC 9222

For assay [2], the system named is Serratia marcescens IFO 12648. The experiment in a line: Antibacterial activity (MIC, growth in BHI medium). It counts as cell-based. More on the design: key to Antibacterial activity (growth): -: grow; ±: slightly grow; +: not grow. As for the experimental part:
To a test tube was charged 3.8 ml of Brain Heart Infusion (BHI) medium, and 100 μl of a sample solution containing oleanolic, ursolic or glycyrrhetic acid and 100 μl of pre-incubated culture of bacterium selected from those listed below were added thereto. The mixture was incubated at 37° C. and then allowed to stand over night. The extent of the growth of bacterium was observed after two or five days. The MIC value was determined for each sample and summarized in Table 2. |Serratia marcescens IFO 12648

Converted amounts (≈) assume the structure as drawn. A value given as a limit tells only on which side of the number the result lay.

Regarding `CC1(C)CC[C@]2(C(=O)O)CC[C@]3(C)C(=CC[C@@H]4[C@@]5(C)CC[C@H](O)C(C)(C)[C@@H]5CC[C@]43C)[C@@H]2C1` [Oleanolic acid], the “Antibacterial activity (growth)” value in assay [1] (10 μg/ml) is reported as “-”; in assay [1] (25 μg/ml) it was “-”; in assay [1] (50 μg/ml), “-”; in assay [1] (100 μg/ml), “-”; in assay [1] (200 μg/ml), “±”; in assay [1] (400 μg/ml), “+”. Also, the “Antibacterial activity (growth)” value in assay [2] (10 μg/ml), in assay [2] (25 μg/ml), in assay [2] (50 μg/ml), in assay [2] (100 μg/ml), in assay [2] (200 μg/ml) and in assay [2] (400 μg/ml) was “-” throughout. The MIC was 400 µg/mL (≈ 876 µM) in assay [1] (ATCC9222, Streptococcus salivarius, BHI, 37° C., read-out: MIC (minimum inhibitory concentration)) and more than 400 µg/mL in assay [2] (IFO12648, Serratia marcescens, BHI, 37° C., read-out: MIC (minimum inhibitory concentration)).
